# In patent publication US7704995B2 (Exelixis, Inc., priority 2003, dated 2010):
# pIC50: −log10 of the molar value.
# How the values were obtained:
# Experiment in all cases: Kinase specificity assay (33P phosphoryl transfer, LCCA or AlphaScreen)
# Type in all cases: biochemical
# Flt1 = Flt1 (Homo sapiens, UniProt P17948); settings: ATP close to KM; read-out: Flt1 inhibition, IC50
# Experimental: (§1) Kinase activity and compound inhibition are investigated using one or more of the three assay formats described below. The ATP concentrations for each assay are selected to be close to the Michaelis-Menten constant (KM) for each individual kinase. Dose-response experiments are performed at 10 different inhibitor concentrations in a 384-well plate format. The data are fitted to the following four-parameter equation: Y=Min+(Max−Min)/(1+(X/IC50)^H) where Y is the observed signal, X is the inhibitor concentration, Min is the background signal in the absence of enzyme (0% enzyme activity), Max is the signal in the absence of inhibitor (100% enzyme activity), IC50 is the inhibitor concentration at 50% enzyme inhibition and H represents the empirical Hill's slope to measure the cooperativity. Typically H is close to unity. ^33P Phosphoryl Transfer Assay:
# (§2) Greiner 384-well white, clear bottom, high binding plates are coated with 2 μg/well of protein or peptide substrate in a 50 μL volume overnight at ambient temperature. The coating buffer typically contains 40 μg/mL substrate, 22.5 mM Na2CO3, 27.5 mM NaHCO3, 150 mM NaCl and 3 mM NaN3. The coating solution is aspirated and the plates are washed once with 50 μL of assay buffer and padded dry. Subsequently compounds and enzymes are mixed with γ^33P-ATP (3.3 μCi/nmol) in a total volume of 20 uL in suitable assay buffers. The mixture is incubated at ambient temperature for 1.5-2.5 hrs and terminated by aspiration using a Molecular Devices EMBLA 96-head plate washer. The plates are subsequently washed 6-12 times with PBST or TBS buffer. Scintillation fluid (50 μl/well) is then added, the plates are sealed and activity assessed by liquid scintillation spectrometry using a Perkin Elmer MicroBeta TriLux.
# (§3) In the LCCA assays, kinase activity is measured as the percent ATP consumed following the kinase reaction using luciferase-luciferin-coupled chemiluminescence. Greiner 384-well white, clear bottom, medium binding plates are used for LCCA. Briefly, the kinase reaction is initiated by mixing compounds, ATP and kinase in a 20 uL volume. The mixture is incubated at ambient temperature for 2-4 hrs. At the end of the kinase reaction, a 20 uL luciferase-luciferin mix is added and the chemiluminescent signal is read using a Wallac Victor^2 reader. The luciferase-luciferin mix consists of 50 mM HEPES, pH 7.8, 8.5 ug/mL oxalic acid (pH 7.8), 5 (or 50) mM DTT, 0.4% Triton X-100, 0.25 mg/mL coenzyme A, 63 uM AMP, 28 ug/mL luciferin and 40,000 units of light/mL luciferase. For the LCCA assays, total ATP consumption has been standardized to 25-45% and the IC50 values correlates well with those determined by radiometric assays.
# (§4) AlphaScreen technology is a proximity assay which utilizes the increase in fluorescent signal when donor and acceptor beads are close in proximity. Biotinylated poly(Glu,Tyr) 4:1 is used as the kinase substrate, in conjunction with streptavidin-coated donor beads and anti-phosphortyrosine antibody PY100-coated acceptor beads. Upon phosphorylation, the peptide substrate can bind to both donor and acceptor beads giving rise to an increase in fluorescence. Compounds, ATP, biotinylated poly(Glu, Tyr) and kinases are mixed in a volume of 20 uL for 1 hr at ambient temperature using Greiner 384-well white clear bottom medium binding plates. Following incubation a 10 uL solution containing […] AlphaScreen beads, 75 mM Hepes, pH 7.4, 300 mM NaCl, 120 mM EDTA, 0.3% BSA and 0.03% Tween-20 is added to each well. After 2-16 hr incubation of the beads, plates are read in a Perkin Elmer AlphaQuest reader. The IC50 values correlates well with those of radiometric assays.
# PKA = PKA (Homo sapiens, UniProt P17612); settings: ATP close to KM; read-out: PKA inhibition, IC50
# Experimental: as §1, §2, §3, §4
# IRK = IRK (Homo sapiens, UniProt P06213); settings: ATP close to KM; read-out: IRK inhibition, IC50
# Experimental: as §1, §2, §3, §4
# EphB4 = biological target: T1, EphB4 (Homo sapiens, UniProt P54760); settings: ATP close to KM; read-out: EphB4 inhibition, IC50
# T1 sequence (P54760 16-987): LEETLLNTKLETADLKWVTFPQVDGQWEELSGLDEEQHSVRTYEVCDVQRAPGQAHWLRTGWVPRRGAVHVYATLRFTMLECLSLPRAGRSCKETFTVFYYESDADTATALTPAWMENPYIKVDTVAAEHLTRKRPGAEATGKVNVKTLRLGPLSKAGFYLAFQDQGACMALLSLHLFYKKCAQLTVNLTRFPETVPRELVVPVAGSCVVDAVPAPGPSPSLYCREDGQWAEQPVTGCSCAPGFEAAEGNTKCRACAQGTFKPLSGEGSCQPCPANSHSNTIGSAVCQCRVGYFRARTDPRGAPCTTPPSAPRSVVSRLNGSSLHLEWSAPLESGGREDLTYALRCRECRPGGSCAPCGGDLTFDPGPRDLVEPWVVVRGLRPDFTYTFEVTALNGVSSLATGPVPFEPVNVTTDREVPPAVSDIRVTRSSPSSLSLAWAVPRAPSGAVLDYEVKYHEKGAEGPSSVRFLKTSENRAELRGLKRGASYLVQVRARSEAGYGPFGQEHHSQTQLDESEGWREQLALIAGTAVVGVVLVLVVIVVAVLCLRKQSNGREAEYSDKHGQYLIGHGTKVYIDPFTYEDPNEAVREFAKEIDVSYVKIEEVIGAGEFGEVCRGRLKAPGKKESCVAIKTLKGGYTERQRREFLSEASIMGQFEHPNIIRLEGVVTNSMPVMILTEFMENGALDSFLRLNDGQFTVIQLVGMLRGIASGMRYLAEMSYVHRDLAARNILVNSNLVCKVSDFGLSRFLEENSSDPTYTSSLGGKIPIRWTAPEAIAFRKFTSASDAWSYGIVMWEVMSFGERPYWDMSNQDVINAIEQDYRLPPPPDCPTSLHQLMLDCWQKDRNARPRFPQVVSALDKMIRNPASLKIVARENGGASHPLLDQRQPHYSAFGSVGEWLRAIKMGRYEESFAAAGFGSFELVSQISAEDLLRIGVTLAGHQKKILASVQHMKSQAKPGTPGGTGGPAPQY
# Experimental: as §1, §2, §3, §4
# CLK1 = CLK1 (Homo sapiens, UniProt P49759); settings: ATP close to KM; read-out: CLK1 inhibition, IC50
# Experimental: as §1, §2, §3, §4
# Flt4 = Flt4 (Homo sapiens, UniProt P35916); settings: ATP close to KM; read-out: Flt4 inhibition, IC50
# Experimental: as §1, §2, §3, §4
# ErbB2 = ErbB2 (Homo sapiens, UniProt P04626); settings: ATP close to KM; read-out: ErbB2 inhibition, IC50
# Experimental: as §1, §2, §3, §4
# Flt1, sequence (P17948 27-1338): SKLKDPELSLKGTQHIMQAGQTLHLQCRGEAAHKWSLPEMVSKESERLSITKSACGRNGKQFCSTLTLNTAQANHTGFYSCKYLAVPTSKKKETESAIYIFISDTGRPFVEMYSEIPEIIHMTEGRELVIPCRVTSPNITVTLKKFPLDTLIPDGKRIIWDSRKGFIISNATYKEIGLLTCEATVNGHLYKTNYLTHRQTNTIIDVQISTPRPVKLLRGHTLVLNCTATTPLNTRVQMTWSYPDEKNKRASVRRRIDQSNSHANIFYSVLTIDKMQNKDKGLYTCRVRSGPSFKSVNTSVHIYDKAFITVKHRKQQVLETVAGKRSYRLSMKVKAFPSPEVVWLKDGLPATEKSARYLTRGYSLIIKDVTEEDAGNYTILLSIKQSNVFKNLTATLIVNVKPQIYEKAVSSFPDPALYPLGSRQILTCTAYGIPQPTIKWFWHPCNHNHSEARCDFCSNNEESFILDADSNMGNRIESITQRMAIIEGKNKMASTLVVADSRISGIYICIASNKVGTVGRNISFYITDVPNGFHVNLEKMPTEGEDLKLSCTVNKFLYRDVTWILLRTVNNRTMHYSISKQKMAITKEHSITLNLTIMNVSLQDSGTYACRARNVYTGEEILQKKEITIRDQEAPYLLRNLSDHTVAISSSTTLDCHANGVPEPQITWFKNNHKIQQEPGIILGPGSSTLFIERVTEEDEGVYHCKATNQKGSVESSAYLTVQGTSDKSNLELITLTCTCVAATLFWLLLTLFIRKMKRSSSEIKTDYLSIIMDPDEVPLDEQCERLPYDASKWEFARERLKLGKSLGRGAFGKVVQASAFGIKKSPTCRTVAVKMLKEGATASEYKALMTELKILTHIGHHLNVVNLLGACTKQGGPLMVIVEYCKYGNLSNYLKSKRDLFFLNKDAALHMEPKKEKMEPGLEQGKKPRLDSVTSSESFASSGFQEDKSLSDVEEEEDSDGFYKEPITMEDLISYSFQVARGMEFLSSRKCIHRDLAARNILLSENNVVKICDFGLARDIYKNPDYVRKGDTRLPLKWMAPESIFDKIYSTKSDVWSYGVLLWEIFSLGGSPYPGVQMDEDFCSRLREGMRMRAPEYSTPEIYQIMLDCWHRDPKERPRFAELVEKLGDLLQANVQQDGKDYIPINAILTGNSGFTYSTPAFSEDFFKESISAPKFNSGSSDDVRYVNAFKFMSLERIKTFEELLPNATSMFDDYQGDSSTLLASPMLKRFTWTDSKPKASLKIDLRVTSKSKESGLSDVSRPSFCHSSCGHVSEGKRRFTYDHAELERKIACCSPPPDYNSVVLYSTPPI
# IRK, sequence (P06213 28-1382): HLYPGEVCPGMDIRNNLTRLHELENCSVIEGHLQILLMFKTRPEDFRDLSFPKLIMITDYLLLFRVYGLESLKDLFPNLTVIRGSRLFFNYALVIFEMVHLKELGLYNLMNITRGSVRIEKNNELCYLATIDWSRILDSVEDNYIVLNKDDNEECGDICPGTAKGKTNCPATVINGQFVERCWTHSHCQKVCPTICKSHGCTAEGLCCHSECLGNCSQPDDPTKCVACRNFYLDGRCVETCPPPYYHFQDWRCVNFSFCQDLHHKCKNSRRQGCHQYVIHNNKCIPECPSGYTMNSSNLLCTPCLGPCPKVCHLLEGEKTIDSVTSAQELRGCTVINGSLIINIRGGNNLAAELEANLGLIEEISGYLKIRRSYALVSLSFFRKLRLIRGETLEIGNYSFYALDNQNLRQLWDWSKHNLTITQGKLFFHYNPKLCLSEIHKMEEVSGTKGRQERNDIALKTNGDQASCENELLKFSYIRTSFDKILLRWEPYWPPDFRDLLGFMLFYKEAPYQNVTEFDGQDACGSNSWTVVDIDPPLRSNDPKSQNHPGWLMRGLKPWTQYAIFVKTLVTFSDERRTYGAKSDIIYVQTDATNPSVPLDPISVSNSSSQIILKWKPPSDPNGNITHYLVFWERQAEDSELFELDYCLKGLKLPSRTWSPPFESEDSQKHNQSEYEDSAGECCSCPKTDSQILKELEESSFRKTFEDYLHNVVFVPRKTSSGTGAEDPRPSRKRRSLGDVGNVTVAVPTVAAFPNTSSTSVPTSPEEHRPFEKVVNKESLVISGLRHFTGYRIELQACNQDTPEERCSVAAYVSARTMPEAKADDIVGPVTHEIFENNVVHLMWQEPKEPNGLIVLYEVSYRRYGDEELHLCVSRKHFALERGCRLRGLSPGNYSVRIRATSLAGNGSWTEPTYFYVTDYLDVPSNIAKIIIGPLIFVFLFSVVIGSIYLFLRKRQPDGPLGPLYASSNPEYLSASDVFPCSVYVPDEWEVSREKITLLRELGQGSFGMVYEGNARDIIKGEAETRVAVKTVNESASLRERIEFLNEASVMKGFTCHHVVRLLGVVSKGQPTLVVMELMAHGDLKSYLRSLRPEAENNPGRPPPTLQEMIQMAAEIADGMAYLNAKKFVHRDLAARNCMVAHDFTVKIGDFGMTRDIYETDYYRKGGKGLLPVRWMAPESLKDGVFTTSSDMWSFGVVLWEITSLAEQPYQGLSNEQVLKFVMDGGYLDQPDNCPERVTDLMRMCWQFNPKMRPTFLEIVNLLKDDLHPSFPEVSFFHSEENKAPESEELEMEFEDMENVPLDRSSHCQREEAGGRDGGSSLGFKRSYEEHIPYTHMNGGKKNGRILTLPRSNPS
# ErbB2, sequence (P04626 23-1255): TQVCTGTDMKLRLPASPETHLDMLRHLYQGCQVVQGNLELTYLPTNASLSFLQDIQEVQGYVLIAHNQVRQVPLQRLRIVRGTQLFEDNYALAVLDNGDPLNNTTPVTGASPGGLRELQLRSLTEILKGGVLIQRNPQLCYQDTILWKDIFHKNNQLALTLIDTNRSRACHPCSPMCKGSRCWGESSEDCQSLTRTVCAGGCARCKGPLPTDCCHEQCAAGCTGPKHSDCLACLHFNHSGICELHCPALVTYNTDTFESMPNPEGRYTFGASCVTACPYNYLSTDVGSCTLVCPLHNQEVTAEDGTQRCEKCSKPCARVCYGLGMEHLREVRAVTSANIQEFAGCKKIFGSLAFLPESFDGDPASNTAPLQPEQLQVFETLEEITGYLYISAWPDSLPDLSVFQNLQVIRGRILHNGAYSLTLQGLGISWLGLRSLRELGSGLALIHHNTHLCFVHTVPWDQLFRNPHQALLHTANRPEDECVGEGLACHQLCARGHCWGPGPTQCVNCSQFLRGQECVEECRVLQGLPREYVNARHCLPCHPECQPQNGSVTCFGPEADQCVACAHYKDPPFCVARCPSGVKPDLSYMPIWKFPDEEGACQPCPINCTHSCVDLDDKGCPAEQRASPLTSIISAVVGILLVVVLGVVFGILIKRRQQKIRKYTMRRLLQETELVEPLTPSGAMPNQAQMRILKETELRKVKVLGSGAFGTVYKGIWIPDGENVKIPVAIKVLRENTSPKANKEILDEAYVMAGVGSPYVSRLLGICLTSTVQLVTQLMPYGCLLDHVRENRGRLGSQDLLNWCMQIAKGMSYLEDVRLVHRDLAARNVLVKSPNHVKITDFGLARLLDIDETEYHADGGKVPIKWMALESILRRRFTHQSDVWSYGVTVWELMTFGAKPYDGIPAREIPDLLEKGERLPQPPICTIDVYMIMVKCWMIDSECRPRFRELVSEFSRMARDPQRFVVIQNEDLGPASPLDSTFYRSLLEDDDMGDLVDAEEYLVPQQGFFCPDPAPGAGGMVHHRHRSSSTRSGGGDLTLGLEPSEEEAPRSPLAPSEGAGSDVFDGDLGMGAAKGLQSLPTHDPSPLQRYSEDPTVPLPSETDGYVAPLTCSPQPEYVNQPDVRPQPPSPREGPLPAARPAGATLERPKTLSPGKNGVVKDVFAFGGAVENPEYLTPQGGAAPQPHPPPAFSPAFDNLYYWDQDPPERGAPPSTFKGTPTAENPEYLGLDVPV
# CLK1, sequence (P49759 whole entry): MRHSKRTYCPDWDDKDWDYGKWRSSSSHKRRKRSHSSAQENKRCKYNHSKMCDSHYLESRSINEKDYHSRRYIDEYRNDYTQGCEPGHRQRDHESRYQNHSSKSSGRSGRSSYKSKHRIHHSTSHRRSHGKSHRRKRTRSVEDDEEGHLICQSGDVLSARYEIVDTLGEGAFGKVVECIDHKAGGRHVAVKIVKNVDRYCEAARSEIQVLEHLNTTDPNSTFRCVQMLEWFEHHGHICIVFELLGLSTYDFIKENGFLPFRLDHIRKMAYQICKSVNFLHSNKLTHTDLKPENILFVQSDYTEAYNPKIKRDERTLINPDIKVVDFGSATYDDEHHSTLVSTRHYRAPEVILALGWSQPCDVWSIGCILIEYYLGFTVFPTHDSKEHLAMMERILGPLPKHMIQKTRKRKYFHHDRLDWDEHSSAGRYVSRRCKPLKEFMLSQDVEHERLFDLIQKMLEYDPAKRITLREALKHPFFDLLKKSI
smiles,measurement,setting,value
"NC(=O)c1nc(-c2cccc3ccccc23)cnc1N [Example 2, 3-Amino-6-naphthalen-1-ylpyrazine-2-carboxamide]",pIC50,Flt1,6.00 to 7.30
same,pIC50,PKA,5.00 to 6.00
same,pIC50,IRK,≤ 5.00
same,pIC50,EphB4,≤ 5.00
same,pIC50,CLK1,5.00 to 6.00
same,pIC50,Flt4,> 7.30
same,pIC50,ErbB2,≤ 5.00
